Measured values as given in ChEMBL document CHEMBL3421614, “Identification of novel aldose reductase inhibitors based on carboxymethylated mercaptotriazinoindole scaffold” (J Med Chem, 2015).

Key:
[1] = Inhibition of Wistar rat kidney aldehyde reductase using D-glucuronate as substrate at 100 uM by spectrophotometry
[2] = target: Aldo-keto reductase family 1 member B1 (Rattus norvegicus, UniProt P07943); test: Inhibition of Wistar rat lens aldose reductase using D,L-glyceraldehyde as substrate incubated for 1 min measured for 4 mins by spectrophotometry
[3] = Inhibition of Wistar rat kidney aldehyde reductase using D-glucuronate as substrate at 10 uM by spectrophotometry
[4] = target: Aldo-keto reductase family 1 member B1 (Rattus norvegicus) (UniProt P07943); test: Inhibition of Wistar rat lens aldose reductase using D,L-glyceraldehyde as substrate at 100 uM incubated for 1 min measured for 4 mins by spectrophotometry
[5] = Octanol-phosphate buffer partition coefficient, log D of the compound at 100 uM at pH 7.4 at RT after 1 hr by shake flask method; assay type: physicochemical
[6] = target: Aldo-keto reductase family 1 member B10 (Homo sapiens, UniProt O60218); test: Inhibition of human AKR1B10 using D-glucuronate as substrate by spectrophotometry
[7] = target: Aldo-keto reductase family 1 member B1 (Rattus norvegicus) (UniProt P07943); test: Inhibition of Wistar rat lens aldose reductase using D,L-glyceraldehyde as substrate at 10 uM incubated for 1 min measured for 4 mins by spectrophotometry

Aldo-keto reductase family 1 member B10, sequence (O60218 whole entry): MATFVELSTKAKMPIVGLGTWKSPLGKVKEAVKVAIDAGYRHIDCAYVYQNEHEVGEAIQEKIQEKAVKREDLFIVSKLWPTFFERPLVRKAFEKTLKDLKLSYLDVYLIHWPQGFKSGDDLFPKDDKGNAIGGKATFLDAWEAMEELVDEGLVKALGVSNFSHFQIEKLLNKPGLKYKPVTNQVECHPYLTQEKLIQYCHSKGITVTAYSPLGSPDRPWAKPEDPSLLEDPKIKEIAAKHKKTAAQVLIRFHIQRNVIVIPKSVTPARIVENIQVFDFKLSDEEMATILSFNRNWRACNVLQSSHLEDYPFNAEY

Row | Structure (SMILES) | inhibition [1] [%] | IC50 ([2]; read-out: IC50) [µM] | also measured
1 | O=C(O)Cn1cc(Cc2nc3c(F)c(F)cc(F)c3s2)c2ccccc21 [LIDORESTAT] |  | 0.005 | 
2 | CC(C)Sc1nnc2c3ccccc3n(CC(=O)O)c2n1 |  | 2.05 | 
3 | O=C(O)Cn1c2ccccc2c2cn[nH]c(=O)c21 | 49 | 11.5 | 
4 | CCN(CC)Cc1cn(CCC(=O)O)c2ccccc12 | 6.65 |  | inhibition [4]: 19.9%
5 | O=C(O)Cn1c2ccccc2c2nn3c(nc4ccccc43)nc21 |  | 9.95 | inhibition [3]: 15.1%
6 | CCN(CC)Cc1cn(CC(=O)O)c2ccccc12 | 38 | 30.1 | 
7 | O=C(O)Cn1c2ccccc2c2nnc(S)nc21 |  |  | logD at 1 h, 100 µM [5]: -1.9; IC50 [6]: 21.4 µM
8 | O=C(O)Cn1c2ccccc2c2nc3ccccc3nc21 |  | 2.75 | 
9 | Sc1nnc2c(n1)[nH]c1ccccc12 |  |  | inhibition [4]: 4.41%
10 | O=C(O)CSc1nnc2c(n1)[nH]c1ccccc12 |  |  | inhibition [7]: 3.46%
11 | Cc1cc(C)c(NC(=O)CSc2nnc3c4ccccc4n(CC(=O)O)c3n2)c(C)c1 |  | 4.06 | inhibition [3]: 23.5%
12 | CCCNC(=O)CSc1nnc2c3cc(C)ccc3n(CC(=O)O)c2n1 |  | 0.33 | 
13 | Cc1c(CN(C)C)c2ccccc2n1CC(=O)O | 22.3 | 42.2 | 

Further lines, with some results ahead:

Row | inhibition [1] [%] | IC50 ([2]; read-out: IC50) [µM] | Structure (SMILES) | also measured
14 | 32.5 | 34.5 | O=C(O)Cn1cc(N2CCOCC2)c2ccccc21 | 
15 |  | 13.8 | CC(C)(C)C(=O)c1cn(CC(=O)O)c2ccccc12 | 
16 |  | 7.3 | O=C(O)Cn1ccc2ccccc21 | 
17 |  | 2.24 | O=C(O)Cn1c2ccccc2c2nnc(Sc3ccccc3F)nc21 | inhibition [3]: 1.18%; IC50 ([2]; read-out: pIC50 (converted)): 2.19 µM
18 | 11.8 |  | O=C(O)CCn1ccc2ccccc21 | inhibition [4]: 53.5%
19 | 19.2 | 46.5 | O=C(O)Cn1cc(N2CCCC2)c2ccccc21 | 
20 |  | 2.87 | O=C(O)Cn1c2c(c3ccccc31)CCC2 | 
